Among the data in the supplement of paper PMC4862054 are normalised response values, retold here.

Assay in all cases: normalised response (% of control), CellTiter-Glo; higher = more viable cells (100 = DMSO, 0 = benzethonium chloride kill control)
Common to all, as to conditions: incubation time: 72 h
(Cellular ATP, detected with luciferase, serves as a proxy for viable cell number.)

For assay [1], the system named is BT-474. How it is done:
(§1)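 DSRT, 72 h incubation, CellTox Green / CellTiter-Glo readout. Signal is normalised to DMSO and benzethonium chloride controls. Value is the normalised response at the highest dose.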

In assay [2] the test system is CAL-85-1. How it is done:
as §1

The test system of assay [3] is HCC1143. On the procedure: as §1
For assay [4], the system named is CAL-51. How it is done:
as §1

The subject of assay [5] is MDA-MB-436. How it is done:
as §1

The subject of assay [6] is HCC1937. On the procedure: as §1
In assay [7] the test system is MDA-MB-453. On the procedure: as §1
Assay [8] concerns MDA-MB-468. How it is done:
as §1

For assay [9], the system named is MCF-10A. On the procedure: as §1
Assay [10] relates to HDQ-P1. How it is done: as §1
Assay [11] deals with BT-549. On the procedure: as §1
The subject of assay [12] is CAL-148. How it is done:
as §1

The subject of assay [13] is CAL-120. How it is done: as §1
Assay [14] relates to Hs578T. On the procedure:
as §1

For assay [15], the system named is DU-4475. On the procedure: as §1
In assay [16] the test system is SK-BR-3. On the procedure:
as §1

In assay [17] the test system is MFM-223. How it is done:
as §1

The test system of assay [18] is MDA-MB-231. How it is done:
as §1

The subject of assay [19] is HCC1599. On the procedure:
as §1

For `N#Cc1ccc(COC[C@H]2O[C@@H](n3c(NCc4ccc(Cl)c(Cl)c4)nc4c(N)ncnc43)[C@H](O)[C@@H]2O)cc1` (10000 nM), the normalised response in assay [1] is 68.2%; in assay [2], 86.3%; in assay [3] it was 66.2%; in [4], 88%; in assay [5] it was 85.1%; in assay [6], 51.6%. Moreover, the normalised response in assay [7] worked out at 75%; in assay [8], 72.5%; in assay [9], 59.2%; in assay [10], 69.6%; in [11], 61.8%; in assay [12] it was 83.7%. The normalised response in [13] is 83.7%; in [14], 78.2%; in [15], 65.6%; in assay [16], 47.4%; in assay [17] it was 74.3%; in assay [18], 74.5%. The normalised response in assay [19] amounted to 65.7%.
Consider `COc1cc(OC2CCN(C)CC2)ccc1Nc1ncc2c(n1)n(C1CCCC1)c(=O)n2C` [AZ 3146] (10000 nM), for which the normalised response in assay [1] came to 59.9%; in [2] it was 51.7%; in [3], 70.4%; in [4] it was 48.9%; in assay [5], 79.3%; in assay [6] it was 70.3%. The normalised response in [7] was found to be 95.7%; in assay [8], 28.6%; in assay [9], 47.8%; in assay [10] it was 70.6%; in assay [11], 64.3%; in assay [12], 58.7%. Moreover, the normalised response in [13] came to 81%; in [14] it was 63%; in assay [15] it was 79.1%; in assay [16], 52.4%; in [17], 72.1%; in [18], 62.3%. The normalised response in assay [19] turned out to be 37.8%.
Turning to `CN(C)c1nc(N(C)C)nc(N(C)C)n1` [Altretamine] (10000 nM), the normalised response in [1] was found to be 98.7%; in assay [2] it was 108%; in assay [3], 100%; in assay [4] it was 109%; in [5], 107%; in assay [6] it was 100%. Besides, the normalised response was found to be 108% in [7]; 104% in [8]; 107% in assay [9]; 97.8% in [10]; 102% in [11]; 106% in assay [12]. Besides, the normalised response came out at 100% in [13]; 105% in [14]; 107% in [15]; 108% in [16]; 106% in assay [17]; 102% in assay [18]. The normalised response in [19] was 112%.
With `O=C(/C=C/c1cccc(S(=O)(=O)Nc2ccccc2)c1)NO` [Belinostat] (10000 nM), the normalised response stood at 5.7% in [1]; 6.45% in [2]; 12.4% in assay [3]; 44.5% in assay [4]; 29.3% in assay [5]; 20.5% in [6]. The normalised response is 2.73% in [7]; 8.88% in assay [8]; 16.1% in assay [9]; 30.4% in assay [10]; 17.8% in assay [11]; -0.03% in assay [12]. Further, the normalised response in assay [13] was 7.76%; in assay [14] it was 7.71%; in assay [15], 5.73%; in assay [16], 0%; in assay [17], 26.1%; in assay [18], 2.16%. In addition, the normalised response in assay [19] was determined as 5.36%.
`O=P1(N(CCCl)CCCl)NCCCO1` (stereo not given) [Cyclophosphamide] (40000 nM): the normalised response amounted to 92.8% in assay [1]; 98.8% in assay [2]; 105% in assay [3]; 131% in assay [4]; 96.3% in [5]; 95.8% in assay [6]. In addition, the normalised response in assay [7] was 101%; in [8] it was 93.2%; in assay [9], 109%; in assay [10], 96.8%; in assay [11], 100%; in assay [12] it was 101%. Further, the normalised response in assay [13] was found to be 94.4%; in [14], 106%; in assay [15] it was 102%; in assay [16] it was 108%; in assay [17], 108%; in assay [18], 99.9%. Moreover, the normalised response in [19] was found to be 92.9%.
